Measurements from paper PMC9029893 (International Journal of Molecular Sciences, 2022).

Tests used:
[1] = tested on: coagulation in human citrate plasma; experiment: Coagulation assay (endogenous thrombin generation); assay type: biochemical
Protocol: These reagents induce a feedback reaction leading to the generation of endogenous thrombin, and coagulation. The other experimental conditions were the same as for the CL-test (Section 4.12).
The obtained curves were analyzed using dedicated software that estimates the following parameters: TGt—thrombin generation time (s), Fmax—maximum clotting (%T), Tf—plasma clotting time (s), Fvo—initial plasma clotting velocity (%T/min), Sf—area under the clot formation curve (%Txmin), Tc—clot stabilization time (s), S—area under the curve of coagulation (%Txmin).

[2] = tested on: tissue plasminogen activator (t-PA) release from HUVEC; experiment: t-PA release from HUVEC (ELISA); assay type: cell-based, human; settings: 24 h, HUVEC supernatants
Protocol: The influence on tissue plasminogen activator release from HUVECs was assessed using an ELISA kit (Abcam, Cambridge, UK). HUVECs seeded at a density of 10,000 per well on 96-well plates were co-incubated with compounds 1–5 at the concentrations of 0.3 and 1.0 mM for an additional 24 h (37 °C, 5% CO2). The cell supernatants were discarded into Eppendorf tubes and preserved at −20° C until analysis. Before the tests, the samples were thawed at room temperature for 15 min, and diluted 2.5-fold with diluent in Elisa kit. The measurements of t-PA concentrations in cell supernatants were conducted according to the manufacturer’s protocol using 3,3’,5,5’-tetramethylbenzidine (TMB) as a chromogenic substrate. The concentration of t-PA in HUVEC supernatants was determined using a calibration curve (R^2 = 0.9936). The results are presented as mean ± SD, n = 6. The CV for the applied method was 7.21%.

[3] = tested on: human plasma (platelet poor plasma); experiment: Basic coagulation tests: PT, INR, APTT, TT; assay type: biochemical; settings: for TT: thrombin 3.0 UNIH/mL
Protocol: The blood was collected into vacuum tubes stuffed with 3.2% buffered sodium citrate. Platelet poor plasma (PPP) was obtained by centrifugation at 3000× g for 10 min at room temperature using a Micro 22R centrifuge (Hettich Zentrifugen, Tuttlingen, Germany). The obtained PPP was stored in small aliquots for up to one month at –30° C. Before each experiment, PPP was restored at 37 °C for 15 min. Once thawed, the PPP was not frozen again nor used for retesting.
The effects of biguanidines (1–5) on the basic coagulation parameters (PT, INR, APTT, and TT) were carried out using a CoagChrom-3003 coagulometer (Bio-Ksel, Grudziądz, Poland), according to the routine laboratory diagnostic procedure. The studies were performed in multiplicate (n = 4–7). The control samples containing distilled water and methanol (1:1) were also included.
The results are presented as mean ± standard deviation (SD). The methods were validated, and coefficients of variability for all experiments were calculated (PT: CV = 10.25%, APTT: CV = 8.55%, TT: CV = 4.87%). The reference values for each test are as follows: PT: 9.7–14.6 s; APTT: 26.7–40.0 s; TT: 14.0–18.0 s for 3.0 UNIH/mL of thrombin.

[4] = tested on: HUVEC cells; experiment: HUVEC migration, wound-healing assay (JuLI Stage); assay type: cell-based, human
Protocol: The effects of compounds 1–5 on HUVEC migration were determined using the JuLI™ Stage system (NanoEntek, Seoul, Korea): a real-time cell history recorder allowing for live cell imaging and analysis. The procedure for the migration experiments has been published elsewhere in more detail. Concisely, HUVECs were seeded at a density of 10,000 cells per well on 96-well plates and incubated at standard conditions for 24 h. Following this, a wound was made with a scratcher (NanoEntek, Seoul, Korea). The cells were then rinsed with 100 μL of fresh EGM2 medium, and treated with biguanides 1–5 at the concentrations of 0.3 and 1.0 mM. The cells were incubated and monitored continuously every 10 min for 36 h at 37 °C, 5% CO2. Analysis of obtained images of cell migration, and measurements of the width of the scratch area were performed using dedicated software (NanoEntek, Seoul, Korea). The results were presented as mean ± SD, n = 4–8. The CV for the method was estimated as 14.2–24.4%, depending on the time point (n = 8).

`CN(C)C(=N)N=C(N)NS(=O)(=O)C1CCCCC1` [Compound 3] was tested, and the “Fmax—maximum clotting” value ([1]; 0.06 mM) was 84.78 ± 5.57 %T, the “Fvo—initial plasma clotting velocity” value ([1]; 0.06 mM) was 108.56 ± 28.63 %T/min and the “Sc—area under the curve of a stable clot formation” value (shortened to “Sc—area under the curve”) ([1]; 0.06 mM) was 586.27 ± 95.97 %T x min. The “Sf—area under the clot formation curve” value ([1]; 0.06 mM) was 102.35 ± 29.66 %T x min, the “S—overall potential of clot formation” value ([1]; 0.06 mM) was 1628.36 ± 118.58 %T x min and the “TGt—thrombin generation time” value ([1]; 0.06 mM) was 155.00 ± 20.58 s. For the same molecule, the “Tf—plasma clotting time” value ([1]; 0.06 mM) was 108.30 ± 35.15 s, the “Fmax—maximum clotting” value ([1]; 0.3 mM) was 82.66 ± 7.51 %T and the “Fvo—initial plasma clotting velocity” value ([1]; 0.3 mM) was 113.42 ± 23.98 %T/min. For the same molecule, the “Sc—area under the curve” value ([1]; 0.3 mM) was 766.41 ± 394.94 %T x min, the “Sf—area under the clot formation curve” value ([1]; 0.3 mM) was 100.51 ± 28.00 %T x min and the “S—overall potential of clot formation” value ([1]; 0.3 mM) was 1580.91 ± 150.03 %T x min. For the same molecule, the “TGt—thrombin generation time” value ([1]; 0.3 mM) was 139.60 ± 7.44 s, the “Tf—plasma clotting time” value ([1]; 0.3 mM) was 108.58 ± 33.64 s and the “Fmax—maximum clotting” value ([1]; 0.6 mM) was 82.44 ± 5.61 %T. For the same molecule, the “Fvo—initial plasma clotting velocity” value ([1]; 0.6 mM) was 127.78 ± 40.82 %T/min, the “Sc—area under the curve” value ([1]; 0.6 mM) was 560.45 ± 102.47 %T x min and the “Sf—area under the clot formation curve” value ([1]; 0.6 mM) was 107.67 ± 29.19 %T x min. The “S—overall potential of clot formation” value ([1]; 0.6 mM) was 1580.02 ± 119.57 %T x min, the “TGt—thrombin generation time” value ([1]; 0.6 mM) was 158.40 ± 13.03 s and the “Tf—plasma clotting time” value ([1]; 0.6 mM) was 112.94 ± 35.34 s. For the same molecule, the “Fmax—maximum clotting” value ([1]; 1.5 mM) was 77.50 ± 8.20 %T, the “Fvo—initial plasma clotting velocity” value ([1]; 1.5 mM) was 135.98 ± 31.06 %T/min and the “Sc—area under the curve” value ([1]; 1.5 mM) was 537.91 ± 99.63 %T x min. The “Sf—area under the clot formation curve” value ([1]; 1.5 mM) was 83.28 ± 17.34 %T x min, the “S—overall potential of clot formation” value ([1]; 1.5 mM) was 1494.31 ± 163.29 %T x min and the “TGt—thrombin generation time” value ([1]; 1.5 mM) was 165.40 ± 28.25 s. The “Tf—plasma clotting time” value ([1]; 1.5 mM) was 93.42 ± 26.49 s, the “Released t-PA” value ([2]; 0.3 mM) was 1550.9 ± 135.2 pg/mL and the “Released t-PA” value ([2]; 1.0 mM) was 1267.1 ± 350.6 pg/mL. The APTT ([3]; 0.006 mM) was 32.97 ± 5.06 s, the INR ([3]; 0.006 mM) was 1.00 ± 0.11 and the PT ([3]; 0.006 mM) was 12.52 ± 1.42 s. For the same molecule, the TT ([3]; 0.006 mM) was 13.18 ± 1.97 s, the APTT ([3]; 0.06 mM) was 34.50 ± 4.52 s and the INR ([3]; 0.06 mM) was 1.04 ± 0.15. It also gave a PT ([3]; 0.06 mM) of 13.02 ± 1.90 s, a TT ([3]; 0.06 mM) of 13.14 ± 2.01 s and an APTT ([3]; 0.3 mM) of 33.00 ± 5.70 s. The INR ([3]; 0.3 mM) was 1.09 ± 0.11, the PT ([3]; 0.3 mM) was 13.60 ± 1.39 s and the TT ([3]; 0.3 mM) was 13.46 ± 1.97 s. For the same molecule, the APTT ([3]; 0.6 mM) was 33.17 ± 5.34 s, the INR ([3]; 0.6 mM) was 1.09 ± 0.18 and the PT ([3]; 0.6 mM) was 13.66 ± 2.27 s. It also gave a TT ([3]; 0.6 mM) of 13.50 ± 1.74 s, an APTT ([3]; 1.5 mM) of 32.49 ± 7.50 s and an INR ([3]; 1.5 mM) of 1.06 ± 0.18. It also gave a PT ([3]; 1.5 mM) of 13.30 ± 2.30 s, a TT ([3]; 1.5 mM) of 14.06 ± 1.60 s and a wound width ([4]; 0.3 mM, 6 hours) of 606.7 ± 149.4 µm. It also gave a wound width ([4]; 0.3 mM, 12 hours) of 486.0 ± 131.2 µm, a wound width ([4]; 0.3 mM, 18 hours) of 441.9 ± 99.5 µm and a wound width ([4]; 0.3 mM, 24 hours) of 395.9 ± 104.7 µm. It also gave a wound width ([4]; 0.3 mM, Start) of 675.1 ± 94.6 µm, a wound width ([4]; 1.0 mM, 6 hours) of 494.6 ± 106.9 µm and a wound width ([4]; 1.0 mM, 12 hours) of 414.1 ± 103.5 µm. It also gave a wound width ([4]; 1.0 mM, 18 hours) of 385.2 ± 94.5 µm, a wound width ([4]; 1.0 mM, 24 hours) of 331.3 ± 62.5 µm and a wound width ([4]; 1.0 mM, Start) of 609.3 ± 73.0 µm.
